Experimental data from publication PMC2766802 (Analytical biochemistry, 2009).
Where a name gives a salt, the structure may show the parent alone. Read-outs that look alike come from different tables or passages of the source.

Tests used:
[1] = target: hERG channel (Homo sapiens, UniProt Q12809)
[2] = test system: untransduced U-2 OS cells; assay: thallium flux counter-screen in untransduced U-2 OS cells; format: cell-based, human; details: concentration response (Fig. 3A)
[3] = IC50, LOPAC 1280 library qHTS, titration series, hERG-expressing U-2 OS cells

hERG channel, sequence (Q12809 whole entry): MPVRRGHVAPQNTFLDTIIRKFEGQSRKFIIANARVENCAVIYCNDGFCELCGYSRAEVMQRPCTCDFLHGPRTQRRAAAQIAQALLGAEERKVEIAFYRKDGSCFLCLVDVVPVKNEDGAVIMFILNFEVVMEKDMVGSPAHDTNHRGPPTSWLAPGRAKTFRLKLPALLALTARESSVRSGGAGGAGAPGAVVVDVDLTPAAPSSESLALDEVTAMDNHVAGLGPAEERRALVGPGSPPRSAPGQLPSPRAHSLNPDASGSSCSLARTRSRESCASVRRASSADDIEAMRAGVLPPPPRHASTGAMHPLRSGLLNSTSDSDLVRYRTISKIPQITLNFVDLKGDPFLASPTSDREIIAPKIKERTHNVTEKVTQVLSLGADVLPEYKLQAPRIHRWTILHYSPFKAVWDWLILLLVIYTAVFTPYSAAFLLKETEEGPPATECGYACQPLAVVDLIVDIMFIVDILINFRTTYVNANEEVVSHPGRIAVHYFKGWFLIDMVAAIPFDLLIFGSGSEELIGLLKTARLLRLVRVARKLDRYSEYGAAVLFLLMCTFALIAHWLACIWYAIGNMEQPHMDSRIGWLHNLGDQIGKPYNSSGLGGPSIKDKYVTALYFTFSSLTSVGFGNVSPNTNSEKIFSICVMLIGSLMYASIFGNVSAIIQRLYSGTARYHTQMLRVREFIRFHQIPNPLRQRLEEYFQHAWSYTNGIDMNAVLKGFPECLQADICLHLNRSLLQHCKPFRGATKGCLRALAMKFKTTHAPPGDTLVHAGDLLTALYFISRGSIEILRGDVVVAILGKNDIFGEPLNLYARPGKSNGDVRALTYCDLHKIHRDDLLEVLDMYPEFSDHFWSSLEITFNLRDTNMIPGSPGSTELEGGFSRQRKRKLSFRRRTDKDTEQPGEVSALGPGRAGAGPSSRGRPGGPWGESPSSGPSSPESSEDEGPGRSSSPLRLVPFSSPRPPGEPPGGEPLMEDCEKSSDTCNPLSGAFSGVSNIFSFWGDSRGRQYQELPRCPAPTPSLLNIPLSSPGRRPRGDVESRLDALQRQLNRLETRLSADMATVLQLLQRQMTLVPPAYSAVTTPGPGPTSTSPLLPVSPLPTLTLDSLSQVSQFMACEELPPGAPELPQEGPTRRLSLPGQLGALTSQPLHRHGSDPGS

Q: With Cc1nc2sccn2c(=O)c1CCN1CCC(=C(c2ccc(F)cc2)c2ccc(F)cc2)CC1 [Ritanserin] as the molecule, how does the IC50 [1, 3] read?
A: 70 nM

Q: For O=C(CCCN1CCC(O)(c2ccc(Cl)cc2)CC1)c1ccc(F)cc1 [haloperidol], which “effect on untransduced cells” value [2] is on record?
A: no effect

Q: For CCOC(=O)C1=C[C@]2(CC)CCCN3CCc4c(n1c1ccccc41)[C@@H]32 [Vinpocetine], which IC50 [1] is on record?
A: 140 nM

Q: With CCCCN1[C@@H]2CC[C@H]1CC(OC(c1ccc(F)cc1)c1ccc(F)cc1)C2 (some centres unmarked) [JHW 007 hydrochloride] as the molecule, how does the IC50 ([1]; LOPAC 1280 library qHTS, titration series, hERG-expressing U-2 OS cells) read?
A: 90 nM

Q: How did the IC50 [1, 3] turn out when CCNC(=O)N1CCN(CCCC(c2ccc(F)cc2)c2ccc(F)cc2)CC1 [Amperozide hydrochloride] was run?
A: 60 nM
